Laboratory results from PubChem BioAssay (NCI).
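Briefly, cells in 96-well plates were exposed to five compound concentrations for 48 h, and endpoints were estimated by linear interpolation. GI50: concentration for 50% inhibition of growth. TGI denotes the concentration required for complete inhibition of growth.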

Experiments:
Assay in all cases: NCI tumour cell line growth inhibition, 48 h
LXFL 529 NSCLC = test system: LXFL 529 NSCLC
KM20L2 colon = test system: KM20L2 colon
HOP-18 NSCLC = test system: HOP-18 NSCLC
SNB-78 CNS = test system: SNB-78 CNS
DMS 273 small cell lung = test system: DMS 273 small cell lung
XF 498 CNS = test system: XF 498 CNS
RXF-631 renal = test system: RXF-631 renal
SN12K1 renal = test system: SN12K1 renal
P388/ADR leukemia = test system: P388/ADR leukemia
P388 leukemia = test system: P388 leukemia

## COc1ccc(-c2cc(=O)c3cc(OC)ccc3[nH]2)cc1
LXFL 529 NSCLC
  TGI: > 100 µM
KM20L2 colon
  TGI: > 100 µM
HOP-18 NSCLC
  TGI: > 100 µM
SNB-78 CNS
  TGI: > 100 µM

## Cc1cc(/C=C/c2cc[n+](C)c3ccccc23)c(O)c2ncccc12
LXFL 529 NSCLC
  TGI: 16 µM
KM20L2 colon
  TGI: 20 µM
HOP-18 NSCLC
  TGI: 11.9 µM
DMS 273 small cell lung
  TGI: 10.4 µM
SNB-78 CNS
  TGI: 27.1 µM

## COc1ccccc1-c1cc(=O)c2cc3c(cc2[nH]1)OCO3
LXFL 529 NSCLC
  TGI: > 100 µM
KM20L2 colon
  GI50: 18.7 µM
  TGI: 37.5 µM
XF 498 CNS
  TGI: 75.5 µM
DMS 273 small cell lung
  TGI: > 100 µM

## Cc1c(N2CCN(C)CC2)nc2ccc(Cl)cc2c1-c1ccccc1
LXFL 529 NSCLC
  TGI: 31.7 µM
KM20L2 colon
  TGI: 31.2 µM
DMS 273 small cell lung
  TGI: 32.1 µM
SNB-78 CNS
  TGI: 39.8 µM

## CSc1nc(NC2OC(COC(C)=O)C(OC(C)=O)C(OC(C)=O)C2OC(C)=O)c2c(n1)OCC2=O (stereo not given)
LXFL 529 NSCLC
  TGI: > 100 µM
KM20L2 colon
  TGI: > 100 µM
HOP-18 NSCLC
  TGI: > 100 µM
RXF-631 renal
  TGI: > 100 µM
SNB-78 CNS
  TGI: > 100 µM

## CC(C)NC(=O)OCc1c(CO)c2c(n1C)-c1ccccc1CC2
SN12K1 renal
  TGI: 35.1 µM
P388/ADR leukemia
  TGI: 53.9 µM
KM20L2 colon
  TGI: > 84.5 µM
XF 498 CNS
  TGI: 31.3 µM
HOP-18 NSCLC
  TGI: 70.1 µM
P388 leukemia
  TGI: 32.7 µM
DMS 273 small cell lung
  TGI: 62.4 µM
SNB-78 CNS
  TGI: 86.7 µM

## COc1ccc(/C(Cl)=C(\C=N/O)c2ccc(OC)c(OC)c2)cc1OC
LXFL 529 NSCLC
  TGI: > 100 µM
KM20L2 colon
  TGI: > 100 µM
XF 498 CNS
  TGI: > 100 µM
HOP-18 NSCLC
  TGI: > 100 µM
DMS 273 small cell lung
  TGI: > 100 µM
SNB-78 CNS
  TGI: > 100 µM

## COC1C(O)C(n2ncc3c(SC)nc(SC)nc32)OC1C(O)CO (stereo not given)
SN12K1 renal
  TGI: > 67.4 µM
P388/ADR leukemia
  TGI: > 100 µM
KM20L2 colon
  TGI: > 100 µM
XF 498 CNS
  TGI: > 100 µM
HOP-18 NSCLC
  TGI: > 100 µM
P388 leukemia
  TGI: > 100 µM
DMS 273 small cell lung
  TGI: > 100 µM
SNB-78 CNS
  TGI: > 100 µM

## CC1=C(O)C(=O)C2C(=O)C1C1Cc3ccccc3C21 (stereo not given)
LXFL 529 NSCLC
  TGI: > 100 µM
XF 498 CNS
  TGI: > 100 µM
RXF-631 renal
  TGI: > 100 µM
DMS 273 small cell lung
  TGI: > 100 µM
SNB-78 CNS
  TGI: > 100 µM
